Experimental findings from PubChem BioAssay AID192 (DTP/NCI, 2004) are described below.

Structures are written as SMILES. “And” between values parts separate entries of the source, which are not always exact repeats. Identical values can stand only once. Toxic doses and inconclusive results are not listed.

The experiment concerns BDF1 mice, B16 melanoma ip, median survival T/C. The experiment is described as follows: NCI In Vivo Anticancer Drug Screen. Data for tumor model B16 Melanoma (intraperitoneal) in B6D2F1 (BDF1) mice. The settings on record: endpoint: median survival time, higher = longer survival. In a few lines: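 Read-out: survival or tumor size, given as treated/control ratio. Controls received vehicle only; animals bore transplantable tumors.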

Setting [1] is: dose: 6.25 mg/kg/injection, schedule: Q01DX009 (ip), vehicle: Klucel (hydroxypropylcellulose) (HPC).
The mark [2] stands for this setting: dose: 6.25 mg/kg/injection, schedule: Q01DX009 (ip), vehicle: saline.
Where [3] appears, read: dose: 12.5 mg/kg/injection, schedule: Q01DX009 (ip), vehicle: Klucel (hydroxypropylcellulose) (HPC).
Where [4] appears, read: dose: 12.5 mg/kg/injection, schedule: Q01DX009 (ip), vehicle: saline.
Where [5] appears, read: dose: 25.0 mg/kg/injection, schedule: Q01DX009 (ip), vehicle: Klucel (hydroxypropylcellulose) (HPC).
Where [6] appears, read: dose: 50.0 mg/kg/injection, schedule: Q01DX009 (ip), vehicle: Klucel (hydroxypropylcellulose) (HPC).
Where [7] appears, read: dose: 100.0 mg/kg/injection, schedule: Q01DX009 (ip), vehicle: Klucel (hydroxypropylcellulose) (HPC).

In the case of `Cc1cc2nc3ccc(N)cc3oc-2cc1=[N+](C)C`, the T/C by setting is: under setting [1], 105 % of control; under setting [2], 123 % of control; under setting [3], 110 % of control; under setting [4], 119 % of control; under setting [5], 117 % of control.
On to `O=C1CCCC(=O)C1C(C[N+](=O)[O-])c1ccccc1` (stereo unspecified), for which the T/C was 86 % of control under setting [3], 94 % of control under setting [5], 107 % of control under setting [6] and 107 % of control under setting [7].
In the case of `CC(=O)NC1=C(N2CC2C)C(=O)C(NC(C)=O)=C(N2CC2C)C1=O` (stereo unspecified), the T/C runs as follows: (dose: 0.62 mg/kg/injection, schedule: Q01DX009 (ip), vehicle: saline) 89 % of control; (dose: 1.25 mg/kg/injection, schedule: Q01DX009 (ip), vehicle: saline) 105 % of control.
Take `O=C(CCCC(=O)N1CCOCC1)N1CCOCC1`: the T/C was 97 % of control (dose: 100.0 mg/kg/injection, schedule: Q04DX003 (ip), vehicle: Klucel (hydroxypropylcellulose) (HPC)); 95 % of control (dose: 200.0 mg/kg/injection, schedule: Q04DX003 (ip), vehicle: Klucel (hydroxypropylcellulose) (HPC)); 92 % of control (dose: 400.0 mg/kg/injection, schedule: Q04DX003 (ip), vehicle: Klucel (hydroxypropylcellulose) (HPC)).
With `CC(=O)OC1C2CCC(C2)C1C` (stereo unspecified), the T/C is 105 % of control (dose: 100.0 mg/kg/injection, schedule: Q04DX003 (ip), vehicle: saline with Tween-80); 100 % of control (dose: 200.0 mg/kg/injection, schedule: Q04DX003 (ip), vehicle: saline with Tween-80); 97 % of control (dose: 400.0 mg/kg/injection, schedule: Q04DX003 (ip), vehicle: saline with Tween-80).
Turning to `CC(=O)OCC1OC(OC2=C(CC=C(C)C)C(=O)c3ccccc3C2=O)C(OC(C)=O)C(OC(C)=O)C1OC(C)=O` (stereo unspecified), the T/C by setting is: under setting [1], 95 % of control and 98 % of control; under setting [3], 87 % of control; under setting [5], 87 % of control; under setting [6], 88 % of control and 91 % of control; under setting [7], 92 % of control.
With `CCc1ccc(NC2=NCCO2)cc1`, the T/C runs as follows: (dose: 12.5 mg/kg/injection, schedule: Q01DX009 (ip), vehicle: saline with Tween-80) 102 % of control; (dose: 25.0 mg/kg/injection, schedule: Q01DX009 (ip), vehicle: saline with Tween-80) 97 % of control; (dose: 50.0 mg/kg/injection, schedule: Q01DX009 (ip), vehicle: saline with Tween-80) 91 % of control.
Regarding `CCC(CO)NC(=O)C1C=C2c3cccc4[nH]cc(c34)CC2N(C)C1` (stereo unspecified), the T/C runs as follows: under setting [1], 93 % of control; under setting [3], 98 % of control; under setting [5], 91 % of control; under setting [6], 86 % of control; under setting [7], 86 % of control; (dose: 200.0 mg/kg/injection, schedule: Q01DX009 (ip), vehicle: Klucel (hydroxypropylcellulose) (HPC)) 111 % of control.
`CNCCC=C1c2ccccc2CCc2ccccc21`: the T/C reads like this: under setting [2], 102 % of control; under setting [4], 97 % of control; (dose: 25.0 mg/kg/injection, schedule: Q01DX009 (ip), vehicle: saline) 102 % of control.
As to `C=C(OC)C(Nc1cc(OC)c(OC)cc1C(=O)OC1CC(O[C@@H]2C(=O)C(NC(=O)OC)=C3/C(=C\CSSSC)[C@]2(O)C#C/C=C\C#C[C@@H]3OC2OC(C)C(NOC3CC(O)C(SC)C(C)O3)C(O)C2OC2CC(OC)C(NCCC)CO2)OC(C)C1O)OC` (stereo partly specified), the T/C reads like this: (dose: 0.1 micrograms/kg/injection, schedule: Q01DX009 (ip), vehicle: methylcellulose (MC)) 178 % of control; (dose: 0.2 micrograms/kg/injection, schedule: Q01DX009 (ip), vehicle: methylcellulose (MC)) 172 % of control; (dose: 0.4 micrograms/kg/injection, schedule: Q01DX009 (ip), vehicle: methylcellulose (MC)) 175 % of control; (dose: 0.4 micrograms/kg/injection, schedule: Q04DX003 (ip), vehicle: methylcellulose (MC)) 160 % of control; (dose: 0.8 micrograms/kg/injection, schedule: Q01DX009 (ip), vehicle: methylcellulose (MC)) 182 % of control; (dose: 1.6 micrograms/kg/injection, schedule: Q01DX009 (ip), vehicle: methylcellulose (MC)) 182 % of control. Also, the T/C is 168 % of control (dose: 1.6 micrograms/kg/injection, schedule: Q04DX003 (ip), vehicle: methylcellulose (MC)); 153 % of control (dose: 3.2 micrograms/kg/injection, schedule: Q04DX003 (ip), vehicle: methylcellulose (MC)); 106 % of control (dose: 6.4 micrograms/kg/injection, schedule: Q04DX003 (ip), vehicle: methylcellulose (MC)).
As to `N#C/C(=C\c1c[nH]c2ccccc12)C(N)=O`, the T/C by setting is: (dose: 100.0 mg/kg/injection, schedule: Q01DX009 (ip), vehicle: saline with Tween-80) 108 % of control; (dose: 200.0 mg/kg/injection, schedule: Q01DX009 (ip), vehicle: saline with Tween-80) 108 % of control; (dose: 400.0 mg/kg/injection, schedule: Q01DX009 (ip), vehicle: saline with Tween-80) 108 % of control.
